According to ChEMBL document CHEMBL6109084 (Eur J Med Chem, 2025):
≈ marks a conversion by molar mass, not a printed value. Calls of active or inactive are those of the source. The calls are words filed in the database; no cut-off is given here.

Test system: HK-2
Assay: Cytotoxicity against human HK-2 cells assessed as reduction in cell viability at 10 to 50 uM incubated for 24 hrs by MTT assay
Format: toxicity, cell-based
Conditions: hk-2, 24 h, dose 10-50 µM

Compound	Activity
CCC(c1cc(-c2ccc(N)nc2)ccn1)n1cc(OC)c(-c2cc(Cl)ccc2-n2cnnn2)cc1=O (racemic)	Toxic

Test system: not listed separately
Assay: Selectivity index, ratio of IC50 for inhibition of chymotrypsin (unknown origin) using N-Suc-Ala-Ala-Pro-Phe-pNA as substrate to IC50 for inhibition of human FXIa using p-Glu-Pro-Arg-pNA.HCl as substrate
Conditions: not given

Ratio IC50	Compound
> 1000	CCC(c1cc(-c2ccc(N)nc2)ccn1)n1cc(OC)c(-c2cc(Cl)ccc2-n2cnnn2)cc1=O (racemic)
> 1000	COc1cn(Cc2cc(-c3ccc(N)nc3)ccn2)c(=O)cc1-c1cc(Cl)ccc1-n1cnnn1

Target: Plasminogen (Homo sapiens, UniProt P00747)
Assay: Inhibition of plasmin (unknown origin) using PyroGlu-Phe-Lys-pNA.HCl as substrate incubated for 30 mins followed by substrate addition and measured after 60 mins by microplate reader analysis
Conditions: not given

Chain of Plasminogen (P00747 97-580 limits assumed): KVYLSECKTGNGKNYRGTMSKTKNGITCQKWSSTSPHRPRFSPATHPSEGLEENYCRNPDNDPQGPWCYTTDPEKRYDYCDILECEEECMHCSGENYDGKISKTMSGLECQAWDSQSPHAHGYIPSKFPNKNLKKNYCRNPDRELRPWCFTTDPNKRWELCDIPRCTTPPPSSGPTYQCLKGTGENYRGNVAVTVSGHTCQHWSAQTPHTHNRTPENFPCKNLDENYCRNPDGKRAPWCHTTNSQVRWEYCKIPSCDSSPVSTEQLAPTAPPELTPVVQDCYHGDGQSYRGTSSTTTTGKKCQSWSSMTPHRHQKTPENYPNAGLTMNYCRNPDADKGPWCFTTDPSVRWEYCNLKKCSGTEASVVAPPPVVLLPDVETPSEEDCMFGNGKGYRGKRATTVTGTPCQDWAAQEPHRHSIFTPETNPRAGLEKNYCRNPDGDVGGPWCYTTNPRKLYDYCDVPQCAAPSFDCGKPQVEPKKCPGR
Chain of Plasminogen (P00747 581-810 limits assumed): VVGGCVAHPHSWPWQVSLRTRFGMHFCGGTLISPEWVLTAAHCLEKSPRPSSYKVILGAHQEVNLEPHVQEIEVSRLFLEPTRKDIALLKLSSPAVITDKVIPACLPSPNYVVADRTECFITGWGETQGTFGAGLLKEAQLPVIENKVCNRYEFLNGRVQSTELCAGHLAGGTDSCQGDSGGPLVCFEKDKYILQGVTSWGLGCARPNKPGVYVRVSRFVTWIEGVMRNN

IC50 [nM]	Compound
> 1000	CCC(c1cc(-c2ccc(N)nc2)ccn1)n1cc(OC)c(-c2cc(Cl)ccc2-n2cnnn2)cc1=O (racemic)
> 1000	COc1cn(Cc2cc(-c3ccc(N)nc3)ccn2)c(=O)cc1-c1cc(Cl)ccc1-n1cnnn1

Test system: HepG2
Assay: Cytotoxicity against human HepG2 cells assessed as reduction in cell viability at 1 to 50 uM incubated for 24 hrs by MTT assay
Format: toxicity, cell-based
Conditions: hepg2, 24 h, dose 1-50 µM

Compound	Activity
COc1cn(Cc2cc(-c3ccc(N)nc3)ccn2)c(=O)cc1-c1cc(Cl)ccc1-n1cnnn1	Non-toxic

Target: Trypsin (Homo sapiens, UniProt P07477+P07478+P35030)
Assay: Inhibition of trypsin (unknown origin) using Bz-Ile-Glu(gamma-OR)-Gly-Arg-pNA.HCl as substrate incubated for 30 mins followed by substrate addition and measured after 60 mins by microplate reader analysis
Format: protein assay
Conditions: not given

IC50 [nM]	Compound
> 1000	CCC(c1cc(-c2ccc(N)nc2)ccn1)n1cc(OC)c(-c2cc(Cl)ccc2-n2cnnn2)cc1=O (racemic)
> 1000	COc1cn(Cc2cc(-c3ccc(N)nc3)ccn2)c(=O)cc1-c1cc(Cl)ccc1-n1cnnn1

Test system: not listed separately
Assay: Selectivity index, ratio of IC50 for inhibition of trypsin (unknown origin) using Bz-Ile-Glu(gamma-OR)-Gly-Arg-pNA.HCl as substrate to IC50 for inhibition of human FXIa using p-Glu-Pro-Arg-pNA.HCl as substrate
Conditions: not given

Ratio IC50	Compound
> 1000	CCC(c1cc(-c2ccc(N)nc2)ccn1)n1cc(OC)c(-c2cc(Cl)ccc2-n2cnnn2)cc1=O (racemic)
> 1000	COc1cn(Cc2cc(-c3ccc(N)nc3)ccn2)c(=O)cc1-c1cc(Cl)ccc1-n1cnnn1

Test system: not listed separately
Assay: Selectivity index, ratio of IC50 for inhibition of tPA (unknown origin) using H-D-Ile-Pro-Arg-pNA-2HCl as substrate to IC50 for inhibition of human FXIa using p-Glu-Pro-Arg-pNA.HCl as substrate
Conditions: not given

Ratio IC50	Compound
> 1000	CCC(c1cc(-c2ccc(N)nc2)ccn1)n1cc(OC)c(-c2cc(Cl)ccc2-n2cnnn2)cc1=O (racemic)
> 1000	COc1cn(Cc2cc(-c3ccc(N)nc3)ccn2)c(=O)cc1-c1cc(Cl)ccc1-n1cnnn1

Test system: Plasma
Assay: Anticoagulant activity in citrated human plasma assessed as prolongation of activated partial thromboplastin time at 1 uM incubated for 3 mins by aPTT reagent based automated coagulometric analysis relative to control
Format: functional
Conditions: 0.05 h

Compound	Activity [%]
CCC(c1cc(-c2ccc(N)nc2)ccn1)n1cc(OC)c(-c2cc(Cl)ccc2-n2cnnn2)cc1=O (racemic)	210.1
COc1cn(Cc2cc(-c3ccc(N)nc3)ccn2)c(=O)cc1-c1cc(Cl)ccc1-n1cnnn1	193.8

Target: Prothrombin (Homo sapiens, UniProt P00734)
Assay: Inhibition of thrombin (unknown origin) using H-D-Phe-Pip-Arg-pNA.2HCl as substrate incubated for 30 mins followed by substrate addition and measured after 60 mins by microplate reader analysis
Conditions: not given

IC50 [nM]	Compound
> 1000	CCC(c1cc(-c2ccc(N)nc2)ccn1)n1cc(OC)c(-c2cc(Cl)ccc2-n2cnnn2)cc1=O (racemic)
> 1000	COc1cn(Cc2cc(-c3ccc(N)nc3)ccn2)c(=O)cc1-c1cc(Cl)ccc1-n1cnnn1

Test system: not listed separately
Assay: Apparent permeability in MDCK-MDR1 cells
Format: ADME, cell-based, Canis lupus familiaris
Conditions: dog

Papp [×10⁻⁶ cm/s]	Compound
0.13	COc1cn(Cc2cc(-c3ccc(N)nc3)ccn2)c(=O)cc1-c1cc(Cl)ccc1-n1cnnn1

Target: Plasma kallikrein (Homo sapiens, UniProt P03952)
Assay: Inhibition of PKal (unknown origin) using H-D-Pro-Phe-Arg-pNA.2HCl as substrate incubated for 30 mins followed by substrate addition and measured after 60 mins by microplate reader analysis
Conditions: not given

Chain of Plasma kallikrein (P03952 20-390 limits assumed): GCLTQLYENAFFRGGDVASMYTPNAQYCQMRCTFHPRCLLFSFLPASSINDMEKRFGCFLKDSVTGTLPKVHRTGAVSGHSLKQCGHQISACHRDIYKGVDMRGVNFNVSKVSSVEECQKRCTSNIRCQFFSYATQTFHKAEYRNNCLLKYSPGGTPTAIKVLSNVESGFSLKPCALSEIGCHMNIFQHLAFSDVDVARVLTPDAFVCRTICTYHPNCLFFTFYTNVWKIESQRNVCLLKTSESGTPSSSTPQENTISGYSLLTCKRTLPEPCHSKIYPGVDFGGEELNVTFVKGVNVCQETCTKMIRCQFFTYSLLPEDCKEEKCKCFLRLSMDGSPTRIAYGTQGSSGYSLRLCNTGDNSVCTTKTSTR
Chain of Plasma kallikrein (P03952 391-638 limits assumed): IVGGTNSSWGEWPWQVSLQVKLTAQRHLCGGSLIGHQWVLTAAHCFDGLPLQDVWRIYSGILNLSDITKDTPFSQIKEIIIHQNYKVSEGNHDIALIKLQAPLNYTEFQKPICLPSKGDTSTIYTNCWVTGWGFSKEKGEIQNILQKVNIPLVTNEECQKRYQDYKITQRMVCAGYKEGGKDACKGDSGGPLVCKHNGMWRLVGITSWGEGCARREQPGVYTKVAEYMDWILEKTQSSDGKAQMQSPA

IC50 [nM]	Compound
81	CCC(c1cc(-c2ccc(N)nc2)ccn1)n1cc(OC)c(-c2cc(Cl)ccc2-n2cnnn2)cc1=O (racemic)
97	COc1cn(Cc2cc(-c3ccc(N)nc3)ccn2)c(=O)cc1-c1cc(Cl)ccc1-n1cnnn1

Target: Tissue-type plasminogen activator (Homo sapiens, UniProt P00750)
Assay: Inhibition of tPA (unknown origin) using H-D-Ile-Pro-Arg-pNA-2HCl as substrate incubated for 30 mins followed by substrate addition and measured after 60 mins by microplate reader analysis
Conditions: not given

Chain of Tissue-type plasminogen activator (P00750 whole entry): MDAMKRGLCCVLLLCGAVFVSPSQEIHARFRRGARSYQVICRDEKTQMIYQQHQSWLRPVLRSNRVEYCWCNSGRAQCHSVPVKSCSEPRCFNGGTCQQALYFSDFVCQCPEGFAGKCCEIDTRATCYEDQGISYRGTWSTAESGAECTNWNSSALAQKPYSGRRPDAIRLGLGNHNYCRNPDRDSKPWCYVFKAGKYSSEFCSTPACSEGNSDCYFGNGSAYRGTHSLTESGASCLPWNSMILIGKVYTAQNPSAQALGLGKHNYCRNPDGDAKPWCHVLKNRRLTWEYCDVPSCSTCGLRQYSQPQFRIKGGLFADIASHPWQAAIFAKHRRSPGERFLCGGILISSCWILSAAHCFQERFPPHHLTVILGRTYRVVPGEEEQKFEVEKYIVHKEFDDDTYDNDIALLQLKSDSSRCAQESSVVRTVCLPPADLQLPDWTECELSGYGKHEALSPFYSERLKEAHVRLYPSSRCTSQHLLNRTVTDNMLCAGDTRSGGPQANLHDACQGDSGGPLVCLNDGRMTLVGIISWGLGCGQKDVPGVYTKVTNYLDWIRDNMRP

IC50 [nM]	Compound
> 1000	CCC(c1cc(-c2ccc(N)nc2)ccn1)n1cc(OC)c(-c2cc(Cl)ccc2-n2cnnn2)cc1=O (racemic)
> 1000	COc1cn(Cc2cc(-c3ccc(N)nc3)ccn2)c(=O)cc1-c1cc(Cl)ccc1-n1cnnn1

Test system: not listed separately
Assay: Selectivity index, ratio of IC50 for inhibition of FXIIa (unknown origin) using H-D-ProPhe-Arg-pNA.2HCl as substrate to IC50 for inhibition of human FXIa using p-Glu-Pro-Arg-pNA.HCl as substrate
Conditions: not given

Ratio IC50	Compound
> 1000	CCC(c1cc(-c2ccc(N)nc2)ccn1)n1cc(OC)c(-c2cc(Cl)ccc2-n2cnnn2)cc1=O (racemic)
> 1000	COc1cn(Cc2cc(-c3ccc(N)nc3)ccn2)c(=O)cc1-c1cc(Cl)ccc1-n1cnnn1

Test system: not listed separately
Assay: Cytotoxicity against human AC16 [Human hybrid] cells assessed as reduction in cell viability at 1 to 50 uM incubated for 24 hrs by MTT assay
Format: toxicity, cell-based
Conditions: dose 1-50 µM

Compound	Activity
COc1cn(Cc2cc(-c3ccc(N)nc3)ccn2)c(=O)cc1-c1cc(Cl)ccc1-n1cnnn1	Non-toxic

Test system: not listed separately
Assay: Selectivity index, ratio of IC50 for inhibition of plasmin (unknown origin) using PyroGlu-Phe-Lys-pNA.HCl as substrate to IC50 for inhibition of human FXIa using p-Glu-Pro-Arg-pNA.HCl as substrate
Conditions: not given

Ratio IC50	Compound
> 1000	CCC(c1cc(-c2ccc(N)nc2)ccn1)n1cc(OC)c(-c2cc(Cl)ccc2-n2cnnn2)cc1=O (racemic)
> 1000	COc1cn(Cc2cc(-c3ccc(N)nc3)ccn2)c(=O)cc1-c1cc(Cl)ccc1-n1cnnn1

Test system: Plasma
Assay: Anticoagulant activity in citrated human plasma assessed as prolongation of prothrombin time incubated for 3 mins by PT reagent based automated coagulometric analysis
Format: functional, cell-free
Conditions: not given

Compound	Activity
CCC(c1cc(-c2ccc(N)nc2)ccn1)n1cc(OC)c(-c2cc(Cl)ccc2-n2cnnn2)cc1=O (racemic)	inactive
COc1cn(Cc2cc(-c3ccc(N)nc3)ccn2)c(=O)cc1-c1cc(Cl)ccc1-n1cnnn1	inactive

Test system: Plasma
Assay: Anticoagulant activity in citrated human plasma assessed as prolongation of activated partial thromboplastin time incubated for 3 mins by aPTT reagent based automated coagulometric analysis
Format: functional
Conditions: not given

Compound	Activity
CCC(c1cc(-c2ccc(N)nc2)ccn1)n1cc(OC)c(-c2cc(Cl)ccc2-n2cnnn2)cc1=O (racemic)	Dose-dependent-effect
COc1cn(Cc2cc(-c3ccc(N)nc3)ccn2)c(=O)cc1-c1cc(Cl)ccc1-n1cnnn1	Dose-dependent-effect

Same assay, conditions: 0.05 h

Compound	EC1.5 [µM]
CCC(c1cc(-c2ccc(N)nc2)ccn1)n1cc(OC)c(-c2cc(Cl)ccc2-n2cnnn2)cc1=O (racemic)	0.58
COc1cn(Cc2cc(-c3ccc(N)nc3)ccn2)c(=O)cc1-c1cc(Cl)ccc1-n1cnnn1	0.57

Test system: not listed separately
Assay: physchem
Conditions: aqueous medium, pH 7.4
Description: Aqueous solubility of the compound in DMSO at pH 7.4 incubated for 12 hrs by turbidimetric based UV spectrophotometric analysis

solubility kinetic at 12 h [µg/mL]	Compound
108 (≈ 210 µM)	CCC(c1cc(-c2ccc(N)nc2)ccn1)n1cc(OC)c(-c2cc(Cl)ccc2-n2cnnn2)cc1=O (racemic)
193 (≈ 396 µM)	COc1cn(Cc2cc(-c3ccc(N)nc3)ccn2)c(=O)cc1-c1cc(Cl)ccc1-n1cnnn1

Target: Coagulation factor XI (Homo sapiens, UniProt P03951)
Assay: Inhibition of human FXIa using p-Glu-Pro-Arg-pNA.HCl as substrate incubated for 30 mins followed by substrate addition and measured after 60 mins by microplate reader analysis
Conditions: not given

Chain of Coagulation factor XI (P03951 19-387 limits assumed): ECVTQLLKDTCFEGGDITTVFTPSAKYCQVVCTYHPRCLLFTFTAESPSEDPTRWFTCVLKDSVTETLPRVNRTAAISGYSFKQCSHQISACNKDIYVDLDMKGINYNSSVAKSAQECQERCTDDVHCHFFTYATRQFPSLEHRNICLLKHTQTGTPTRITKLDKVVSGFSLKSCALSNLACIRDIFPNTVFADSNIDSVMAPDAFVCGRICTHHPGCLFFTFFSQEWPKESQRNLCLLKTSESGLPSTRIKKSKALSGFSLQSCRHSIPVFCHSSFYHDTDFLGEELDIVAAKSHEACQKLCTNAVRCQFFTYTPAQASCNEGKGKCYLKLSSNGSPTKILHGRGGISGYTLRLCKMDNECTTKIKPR
Chain of Coagulation factor XI (P03951 388-625 limits assumed): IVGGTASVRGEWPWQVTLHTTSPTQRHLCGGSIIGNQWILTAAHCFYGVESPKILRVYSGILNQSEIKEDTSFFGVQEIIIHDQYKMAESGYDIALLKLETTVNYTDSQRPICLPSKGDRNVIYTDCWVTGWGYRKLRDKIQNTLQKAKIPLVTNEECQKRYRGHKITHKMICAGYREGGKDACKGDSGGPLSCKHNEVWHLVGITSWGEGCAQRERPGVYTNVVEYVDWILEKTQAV

IC50 [nM]	Compound
0.37	CCC(c1cc(-c2ccc(N)nc2)ccn1)n1cc(OC)c(-c2cc(Cl)ccc2-n2cnnn2)cc1=O (racemic)
0.19	COc1cn(Cc2cc(-c3ccc(N)nc3)ccn2)c(=O)cc1-c1cc(Cl)ccc1-n1cnnn1

Test system: HK-2
Assay: Cytotoxicity against human HK-2 cells assessed as reduction in cell viability at 1 to 50 uM incubated for 24 hrs by MTT assay
Format: toxicity, cell-based
Conditions: hk-2, 24 h, dose 1-50 µM

Compound	Activity
COc1cn(Cc2cc(-c3ccc(N)nc3)ccn2)c(=O)cc1-c1cc(Cl)ccc1-n1cnnn1	Non-toxic

Target: Chymotrypsin (Homo sapiens, UniProt Q99895+P17538+P40313+Q6GPI1)
Assay: Inhibition of chymotrypsin (unknown origin) using N-Suc-Ala-Ala-Pro-Phe-pNA as substrate incubated for 30 mins followed by substrate addition and measured after 60 mins by microplate reader analysis
Format: protein assay
Conditions: not given

IC50 [nM]	Compound
> 1000	CCC(c1cc(-c2ccc(N)nc2)ccn1)n1cc(OC)c(-c2cc(Cl)ccc2-n2cnnn2)cc1=O (racemic)
> 1000	COc1cn(Cc2cc(-c3ccc(N)nc3)ccn2)c(=O)cc1-c1cc(Cl)ccc1-n1cnnn1

Test system: not listed separately
Assay: Metabolic stability in human liver microsome assessed as half life
Format: ADME
Conditions: liver microsomes

half-life [h]	Compound
> 3	COc1cn(Cc2cc(-c3ccc(N)nc3)ccn2)c(=O)cc1-c1cc(Cl)ccc1-n1cnnn1

Target: T1, Coagulation factor XII (Homo sapiens, UniProt P00748)
T1 sequence (P00748 whole entry): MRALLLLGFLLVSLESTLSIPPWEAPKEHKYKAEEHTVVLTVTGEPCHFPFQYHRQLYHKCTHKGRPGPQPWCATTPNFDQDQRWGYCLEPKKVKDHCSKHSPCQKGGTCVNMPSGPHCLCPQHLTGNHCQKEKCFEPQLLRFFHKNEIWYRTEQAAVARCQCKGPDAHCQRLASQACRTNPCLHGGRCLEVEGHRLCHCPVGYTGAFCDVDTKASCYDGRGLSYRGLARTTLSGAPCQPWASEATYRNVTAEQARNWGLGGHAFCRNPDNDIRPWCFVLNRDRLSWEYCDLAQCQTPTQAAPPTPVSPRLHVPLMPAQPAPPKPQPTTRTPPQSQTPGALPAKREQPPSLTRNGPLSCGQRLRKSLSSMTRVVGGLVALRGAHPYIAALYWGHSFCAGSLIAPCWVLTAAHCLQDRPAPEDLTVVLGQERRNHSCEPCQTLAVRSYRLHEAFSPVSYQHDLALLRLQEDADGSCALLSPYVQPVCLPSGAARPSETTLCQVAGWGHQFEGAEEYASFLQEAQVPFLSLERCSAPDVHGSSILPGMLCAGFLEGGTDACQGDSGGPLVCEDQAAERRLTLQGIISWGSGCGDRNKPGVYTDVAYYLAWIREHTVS
Assay: Inhibition of FXIIa (unknown origin) using H-D-ProPhe-Arg-pNA.2HCl as substrate incubated for 30 mins followed by substrate addition and measured after 60 mins by microplate reader analysis
Conditions: not given

IC50 [nM]	Compound
> 1000	CCC(c1cc(-c2ccc(N)nc2)ccn1)n1cc(OC)c(-c2cc(Cl)ccc2-n2cnnn2)cc1=O (racemic)
> 1000	COc1cn(Cc2cc(-c3ccc(N)nc3)ccn2)c(=O)cc1-c1cc(Cl)ccc1-n1cnnn1

Target: Coagulation factor X (Homo sapiens, UniProt P00742)
Assay: Inhibition of FXa (unknown origin) using Z-D-Arg-Gly-Arg-pNA.2HCl as substrate incubated for 30 mins followed by substrate addition and measured after 60 mins by microplate reader analysis
Conditions: not given

Chain of Coagulation factor X (P00742 41-179 limits assumed): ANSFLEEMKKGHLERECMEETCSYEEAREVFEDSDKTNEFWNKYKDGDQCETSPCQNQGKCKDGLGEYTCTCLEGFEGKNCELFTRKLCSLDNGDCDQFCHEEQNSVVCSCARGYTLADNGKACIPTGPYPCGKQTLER
Chain of Coagulation factor X (P00742 235-488 limits assumed): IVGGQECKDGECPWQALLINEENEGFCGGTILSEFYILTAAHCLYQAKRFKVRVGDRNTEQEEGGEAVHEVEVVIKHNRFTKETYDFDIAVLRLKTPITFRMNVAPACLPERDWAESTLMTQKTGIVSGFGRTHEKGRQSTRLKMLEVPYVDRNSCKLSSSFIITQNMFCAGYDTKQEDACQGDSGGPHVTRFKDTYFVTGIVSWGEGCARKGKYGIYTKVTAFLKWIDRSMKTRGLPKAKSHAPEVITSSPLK

IC50 [nM]	Compound
> 1000	CCC(c1cc(-c2ccc(N)nc2)ccn1)n1cc(OC)c(-c2cc(Cl)ccc2-n2cnnn2)cc1=O (racemic)
> 1000	COc1cn(Cc2cc(-c3ccc(N)nc3)ccn2)c(=O)cc1-c1cc(Cl)ccc1-n1cnnn1

Test system: not listed separately
Assay: Selectivity index, ratio of IC50 for inhibition of thrombin (unknown origin) using H-D-Phe-Pip-Arg-pNA.2HCl as substrate to IC50 for inhibition of human FXIa using p-Glu-Pro-Arg-pNA.HCl as substrate
Conditions: not given

Ratio IC50	Compound
> 1000	CCC(c1cc(-c2ccc(N)nc2)ccn1)n1cc(OC)c(-c2cc(Cl)ccc2-n2cnnn2)cc1=O (racemic)
> 1000	COc1cn(Cc2cc(-c3ccc(N)nc3)ccn2)c(=O)cc1-c1cc(Cl)ccc1-n1cnnn1

Test system: not listed separately
Assay: Selectivity index, ratio of IC50 for inhibition of FXa (unknown origin) using Z-D-Arg-Gly-Arg-pNA.2HCl as substrate to IC50 for inhibition of human FXIa using p-Glu-Pro-Arg-pNA.HCl as substrate
Conditions: not given

Ratio IC50	Compound
> 1000	CCC(c1cc(-c2ccc(N)nc2)ccn1)n1cc(OC)c(-c2cc(Cl)ccc2-n2cnnn2)cc1=O (racemic)
> 1000	COc1cn(Cc2cc(-c3ccc(N)nc3)ccn2)c(=O)cc1-c1cc(Cl)ccc1-n1cnnn1
